Experimental findings from patent publication US20250257075A1, “MACROCYCLIC INHIBITORS OF KRAS FOR THE TREATMENT OF CANCER” (Hoffmann-La Roche Inc., priority 2022, published 2025) are described below.

The structures appear in SMILES notation.

Assay [1] addresses T1, KRAS G12C-BRAF complex (Homo sapiens, UniProt P01116+P62937, G12C).
T1 construct: expressed in transfected cells
In words: KRAS G12C-BRAF NanoBit assay in HEK293 cells. In kind it is cell-based. The conditions noted are these: HEK293 stable cell pool, 3 hours of incubation. How it is done: This assay is to measure the ability of tested compounds in disruption of the KRAS G12C-BRAF complex at the cellular level, we established the NanoBit cellular assay in mammalian HEK293 (ATCC) cells. HEK293 cells were grown and maintained using DMEM medium (Thermo Fisher Scientific) with 10% fetal bovine serum and 1% penicillin/streptomycin. Both KRAS G12C and BRAF RBD were cloned into the NanoBit vectors ([…] vectors system, Promega) with the orientations SmBit-KRAS G12C and BRAF RBD-LgBit, respectively, and co-transfected into HEK293 cells. Cells were then selected with 100 μg/mL Hygromycin B (10687010, Thermo Fisher) and Blasticidin (5 μg/mL) for 4 weeks to get the stable cell pool. On the day of the assay, 75 nL of compound solution was presented in a 384-well assay plate as a 16-point 3-fold dilution starting from a final concentration of 30 μM in DMSO. Then cells were seeded at 10,000 cells/25 μL/well in a 384-well plate. After 3 hours of incubation, 6 μL of volume of Nano-Glo® Live Cell Substrate (Promega) was added into each well. Monitor luminescence using ultra384 model in Envision at 20 minutes. Compounds that facilitate disruption of the KRAS G12C-BRAF RBD complex were identified as those eliciting a decrease of luminescence relative to DMSO control wells.

Assay [2] has as its target T1, KRAS G12C-BRAF complex. Briefly: KRAS-BRAF with CYPA (500 nM) interaction assay (TR-FRET), G12C. The following applies: 3 hours. In kind it is biochemical. The method, then:
(§1) Kras-BRAF with CYPA (500 nM) Interaction Assay In this example, TR-FRET was also used to measure the compound or compound-CYPA dependent disruption of the KRAS G12C-BRAF complex. This protocol was also used to measure disruption of KRAS G12D or KRAS G12V binding to BRAF by a compound of the invention, respectively. […] TR-FRET signal was read on a […] microplate reader (Ex320 nm, Em 665/615 nm). Compounds that facilitate disruption of the KRAS-BRAF complex were identified as those eliciting a decrease in the TR-FRET ratio relative to DMSO control wells.

Assay [3] concerns phosphorylation of ERK, KRAS G12C in NCI-H358 cells. Briefly: pERK inhibition assay, G12C. In kind it is cell-based, human. The following applies: Homo sapiens; NCI-H358, 4 hours of incubation. The method, then: (§2) This assay is to measure the ability of test compounds in inhibiting the phosphorylation of ERK, the downstream signaling of KRAS G12C in NCI-H358 cells, KRAS G12D in AGS cells, and KRAS G12V in SW620. NCI-H358 (ATCC-CRL5807) cells, AGS (ATCC-CRL-1739) cells, SW620 (ATCC-CCL-227) cells were all grown and maintained using RPMI-1640 medium (Thermo Fisher Scientific) with 10% fetal bovine serum and 1% penicillin/streptomycin. On the day prior to compound addition, cells were plated in tissue culture-treated 96 well plates (Corning-3699) at a density of 30,000 cell/well, 20,000 cell/well, 30,000 cell/well for NCI-H358, AGS and SW620 respectively, and allowed for attachment overnight. Diluted compounds were then added in a final concentration of 0.5% DMSO. After 4 hours of incubation, the medium was removed, 100 μL of 4% formaldehyde was added, and the assay plates were incubated at room temperature for 20 minutes. The plates were then washed once with phosphate buffered saline (PBS), and permeabilized with 100 μL of chilled methanol for 10 minutes. Non-specific antibody binding to the plates was blocked using 50 μL 1×BSA blocking buffer (Thermo-37520, 10-fold dilution by Phosphate-Buffered Saline Tween (PBST) for at least 1 hour at room temperature.
(§3) The amount of phosphor-ERK was determined using an antibody specific for phosphorylated form of ERK. Primary antibody (pERK, CST-4370, Cell Signaling Technology) was diluted 1:300 in blocking buffer, with 50 μL aliquoted to each well, and incubated overnight at 4° C. Cells was washed five times for 5 minutes with PBST. Secondary antibody (HRP-linked anti-rabbit IgG, CST-7074, Cell Signaling Technology) was diluted 1:1000 in blocking buffer, and 50 μL was added to each well and incubated 1-2 hrs at room temperature. Cells was washed 5 times for 5 minutes with PBST, 100 μL TMB ELISA substrate (abcam-ab171523) were added and gently shake for 20 minutes. 50 μL stop solution (abcam-ab171529) were added, and then read the signal (OD450) by EnVision.
(§4) IC50 was determined by fitting a 4-parameter sigmoidal concentration response model.

The test system of the next assay is SW620 cells (KRAS G12V). In words: Cell viability assay, G12V. In kind it is cell-based, human. The following applies: Homo sapiens, SW-620; SW620, 72 hrs, Cell Counting Kit-8. The method, then:
(§5) The purpose of this cellular assay was to determine the effects of test compounds on the proliferation of human cancer cell lines NCI-H358 (ATCC-CRL5807) cells, AGS (ATCC-CRL-1739) cells, SW620 (ATCC-CCL-227) over a 3-day treatment period by quantifying the amount of NADPH present at endpoint using Cell Counting Kit-8.
(§6) Cells were seeded at 5,000 cells/well (NCI-H358), 2,000 cells/well (AGS) 2,000 cells/well (SW620) in 96-well assay plates (Corning-3699) and incubated overnight. On the day of the assay, diluted compounds were then added in a final concentration of 0.5% DMSO. After 72 hrs incubation, a tenth of the volume of cell counting kit 8 (Dnjindo-CK04) was added into each well. Read the signal (OD450 minus OD650) using EnVision after 2 hrs incubation. IC50 was determined by fitting a 4-parameter sigmoidal concentration response model.

Assay [4] relates to phosphorylation of ERK, KRAS G12V in SW620. In words: pERK inhibition assay, G12V. It is filed as cell-based, human. The conditions noted are these: Homo sapiens, SW-620; SW620, 4 hours of incubation. The method, then:
as §2, §3, §4

In assay [5] the test system is NCI-H358 cells (KRAS G12C). In words: Cell viability assay, G12C. It is filed as cell-based, human. The following applies: Homo sapiens; NCI-H358, 72 hrs, Cell Counting Kit-8. How it is done: as §5, §6
Assay [6] concerns phosphorylation of ERK, KRAS G12D in AGS cells. Briefly: pERK inhibition assay, G12D. It is filed as cell-based, human. The conditions noted are these: Homo sapiens, 4 hours of incubation. The method, then: as §2, §3, §4
The next assay relates to AGS cells (KRAS G12D). Briefly: Cell viability assay, G12D. It is filed as cell-based, human. The following applies: Homo sapiens, 72 hrs, Cell Counting Kit-8. The method, then:
as §5, §6

In assay [7] the target is KRAS G12D binding to BRAF (Homo sapiens, UniProt P01116+P62937, G12D). Briefly: KRAS-BRAF with CYPA (500 nM) interaction assay (TR-FRET), G12D. It is filed as biochemical. The following applies: 3 hours. The method, then:
as §1

For assay [8], the target named is KRAS G12V binding to BRAF (Homo sapiens, UniProt P01116+P62937, G12V). Briefly: KRAS-BRAF with CYPA (500 nM) interaction assay (TR-FRET), G12V. In kind it is biochemical. The following applies: 3 hours. How it is done: as §1
Sequence of KRAS G12V binding to BRAF (P01116 1-188 isoform P01116-2 G12V): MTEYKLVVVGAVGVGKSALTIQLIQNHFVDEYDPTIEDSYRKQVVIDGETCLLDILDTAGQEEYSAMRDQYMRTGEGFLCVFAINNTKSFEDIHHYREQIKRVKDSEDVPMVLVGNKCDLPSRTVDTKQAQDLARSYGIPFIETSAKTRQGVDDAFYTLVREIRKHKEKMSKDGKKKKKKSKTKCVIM
Sequence of KRAS G12V binding to BRAF (P62937 whole entry): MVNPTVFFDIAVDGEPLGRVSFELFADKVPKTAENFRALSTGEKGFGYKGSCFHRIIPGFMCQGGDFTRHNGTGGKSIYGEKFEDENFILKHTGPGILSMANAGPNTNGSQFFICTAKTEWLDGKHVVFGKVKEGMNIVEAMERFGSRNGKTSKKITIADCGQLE

T1 sequence (P01116 1-188 isoform P01116-2 G12C): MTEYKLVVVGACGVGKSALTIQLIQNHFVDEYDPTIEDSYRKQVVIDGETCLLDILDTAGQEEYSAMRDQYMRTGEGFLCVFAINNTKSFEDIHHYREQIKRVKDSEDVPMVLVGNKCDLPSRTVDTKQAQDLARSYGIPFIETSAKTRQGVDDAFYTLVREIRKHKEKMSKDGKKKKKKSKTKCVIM
T1 sequence (P62937 whole entry): as the sequence (P62937 whole entry) above
Sequence of KRAS G12D binding to BRAF (P01116 1-188 isoform P01116-2 G12D): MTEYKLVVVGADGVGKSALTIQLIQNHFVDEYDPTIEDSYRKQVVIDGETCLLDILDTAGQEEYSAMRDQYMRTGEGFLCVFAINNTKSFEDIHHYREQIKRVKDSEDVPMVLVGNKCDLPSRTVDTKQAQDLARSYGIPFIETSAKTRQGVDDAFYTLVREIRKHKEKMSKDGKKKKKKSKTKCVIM
Sequence of KRAS G12D binding to BRAF (P62937 whole entry): as the sequence (P62937 whole entry) above

Take `CCn1c(-c2cc(N3CCN(C)CC3)cnc2[C@H](C)OC)c2c3cc(c(F)cc31)-c1csc(n1)C[C@H](NC(=O)[C@H](C(C)C)N(C)C(=O)N1CC(C#CC(F)(F)F)C1)C(=O)N1CCC[C@H](N1)C(=O)OCC(C)(C)C2` (atropisomer, axis not shown; (M)) [Example 14, N-[(1S)-1-[[(7S,13S)-21-ethyl-24-fluoro-(20M)-20-[2-[(1S)-1-methoxyethyl]-5-(4-methylpiperazin-1-yl)-3-pyridyl]-17,17-dimethyl-8,14-dioxo-15-oxa-4-thia-9,21,27,28-tetrazapentacyclo[17.5.2.1^2,5.1^9,13.0^22,26]octacosa-1(25),2,5(28),19,22(26),23-hexaen-7-yl]carbamoyl]-2-methyl-propyl]-N-methyl-3-(3,3,3-trifluoroprop-1-ynyl)azetidine-1-carboxamide]: the IC50 at KRAS G12C-BRAF complex [1] came to 0.036 µM; on KRAS G12C-BRAF complex [2], 1.66 µM; in [3], 0.005 µM; with SW620 cells (KRAS G12V) it was 0.007 µM; in assay [4] it was 0.003 µM; in [5] it was 0.001 µM. For the same compound, the IC50 in assay [6] was 0.02 µM; with AGS cells (KRAS G12D), over 10 µM; in assay [7] it was 4.3 µM; in assay [8], 1.88 µM.
Turning to `CO[C@@H](C)c1ncc(N2CCN(C)CC2)cc1-c1c2c3cc(c(F)cc3n1CC(F)(F)F)-c1csc(n1)C[C@H](NC(=O)[C@H](C(C)C)N(C)C(=O)[C@H]1C[C@H](C#CC(F)(F)F)C1)C(=O)N1CCC[C@H](N1)C(=O)OCC(C)(C)C2` (atropisomer, axis not shown; (M)) [Example 1, trans-N-[(1S)-1-[[(7S,13S)-24-fluoro-(20M)-20-[2-[(1S)-1-methoxyethyl]-5-(4-methylpiperazin-1-yl)-3-pyridyl]-17,17-dimethyl-8,14-dioxo-21-(2,2,2-trifluoroethyl)-15-oxa-4-thia-9,21,27,28-tetrazapentacyclo[17.5.2.1^2,5.1^9,13.0^22,26]octacosa-1(25),2,5(28),19,22(26),23-hexaen-7-yl]carbamoyl]-2-methyl-propyl]-N-methyl-3-(3,3,3-trifluoroprop-1-ynyl)cyclobutanecarboxamide], the IC50 on KRAS G12C-BRAF complex [1] was determined as 0.081 µM; on KRAS G12C-BRAF complex [2], 3.35 µM; in [3], 0.035 µM; in the assay with SW620 cells (KRAS G12V), 0.04 µM; in assay [4], 0.063 µM; in assay [5] it was 0.027 µM. Besides, the half-inhibitory concentration (IC50) in assay [6] was 1.1 µM; with AGS cells (KRAS G12D) it was over 10 µM; in assay [7], over 10 µM; in assay [8], over 10 µM.
On to `CO[C@@H](C)c1ncc(N2CCN(C)CC2)cc1-c1c2c3cc(c(F)cc3n1CC(F)(F)F)-c1csc(n1)C[C@H](NC(=O)[C@H](C(C)C)N(C)C(=O)[C@H]1C[C@@H](C#Cc3ncc(C(F)(F)F)cn3)C1)C(=O)N1CCC[C@H](N1)C(=O)OCC(C)(C)C2` (atropisomer, axis not shown; (M)) [Example 13, cis-N-[(1S)-1-[[(7S,13S)-24-fluoro-(20M)-20-[2-[(1S)-1-methoxyethyl]-5-(4-methylpiperazin-1-yl)-3-pyridyl]-17,17-dimethyl-8,14-dioxo-21-(2,2,2-trifluoroethyl)-15-oxa-4-thia-9,21,27,28-tetrazapentacyclo[17.5.2.1^2,5.1^9,13.0^22,26]octacosa-1(25),2,5(28),19,22(26),23-hexaen-7-yl]carbamoyl]-2-methyl-propyl]-N-methyl-3-[2-[5-(trifluoromethyl)pyrimidin-2-yl]ethynyl]cyclobutanecarboxamide], for which the IC50 came to 0.22 µM against KRAS G12C-BRAF complex [1]; 0.065 µM on KRAS G12C-BRAF complex [2]; 0.045 µM in assay [3]; 0.036 µM in the assay with SW620 cells (KRAS G12V); 0.056 µM in assay [4]; 0.006 µM in assay [5]. Moreover, the IC50 in assay [6] was 1.81 µM; in the assay with AGS cells (KRAS G12D) it was 0.328 µM; in assay [7] it was over 10 µM; in assay [8], over 10 µM.
Regarding `CO[C@@H](C)c1ncc(N2CCN(C)CC2)cc1-c1c2c3cc(c(F)cc3n1CC(F)(F)F)-c1csc(n1)C[C@H](NC(=O)[C@H](C(C)C)N(C)C(=O)c1ccc(C#CC(F)(F)F)cc1)C(=O)N1CCC[C@H](N1)C(=O)OCC(C)(C)C2` (atropisomer, axis not shown; (M)) [Example 4, N-[(1S)-1-[[(7S,13S)-24-fluoro-(20M)-20-[2-[(1S)-1-methoxyethyl]-5-(4-methylpiperazin-1-yl)-3-pyridyl]-17,17-dimethyl-8,14-dioxo-21-(2,2,2-trifluoroethyl)-15-oxa-4-thia-9,21,27,28-tetrazapentacyclo[17.5.2.1^2,5.1^9,13.0^22,26]octacosa-1(25),2,5(28),19,22(26),23-hexaen-7-yl]carbamoyl]-2-methyl-propyl]-N-methyl-4-(3,3,3-trifluoroprop-1-ynyl)benzamide], the IC50 was 0.219 µM at KRAS G12C-BRAF complex [1]; 0.43 µM against KRAS G12C-BRAF complex [2]; 0.063 µM in [3]; 0.041 µM in the assay with SW620 cells (KRAS G12V); 0.006 µM in [4]; 0.123 µM in [5]. Besides, the IC50 is 0.509 µM in [6], 0.781 µM with AGS cells (KRAS G12D), 0.142 µM in assay [7] and over 10 µM in [8].
